# Reference: ChEMBL document CHEMBL1770117 (Bioorg Med Chem Lett, 2011)
# Target: T1, Metabotropic glutamate receptor 5 (Rattus norvegicus, UniProt P31424)
# Assay: Positive allosteric modulator activity at rat mGlu5 receptor expressed in HEK293A cells assessed as increase in glutamate induced response
# Type: cell-based, HEK293-A
# Conditions: not given
# Target sequence in this assay (P31424 whole entry): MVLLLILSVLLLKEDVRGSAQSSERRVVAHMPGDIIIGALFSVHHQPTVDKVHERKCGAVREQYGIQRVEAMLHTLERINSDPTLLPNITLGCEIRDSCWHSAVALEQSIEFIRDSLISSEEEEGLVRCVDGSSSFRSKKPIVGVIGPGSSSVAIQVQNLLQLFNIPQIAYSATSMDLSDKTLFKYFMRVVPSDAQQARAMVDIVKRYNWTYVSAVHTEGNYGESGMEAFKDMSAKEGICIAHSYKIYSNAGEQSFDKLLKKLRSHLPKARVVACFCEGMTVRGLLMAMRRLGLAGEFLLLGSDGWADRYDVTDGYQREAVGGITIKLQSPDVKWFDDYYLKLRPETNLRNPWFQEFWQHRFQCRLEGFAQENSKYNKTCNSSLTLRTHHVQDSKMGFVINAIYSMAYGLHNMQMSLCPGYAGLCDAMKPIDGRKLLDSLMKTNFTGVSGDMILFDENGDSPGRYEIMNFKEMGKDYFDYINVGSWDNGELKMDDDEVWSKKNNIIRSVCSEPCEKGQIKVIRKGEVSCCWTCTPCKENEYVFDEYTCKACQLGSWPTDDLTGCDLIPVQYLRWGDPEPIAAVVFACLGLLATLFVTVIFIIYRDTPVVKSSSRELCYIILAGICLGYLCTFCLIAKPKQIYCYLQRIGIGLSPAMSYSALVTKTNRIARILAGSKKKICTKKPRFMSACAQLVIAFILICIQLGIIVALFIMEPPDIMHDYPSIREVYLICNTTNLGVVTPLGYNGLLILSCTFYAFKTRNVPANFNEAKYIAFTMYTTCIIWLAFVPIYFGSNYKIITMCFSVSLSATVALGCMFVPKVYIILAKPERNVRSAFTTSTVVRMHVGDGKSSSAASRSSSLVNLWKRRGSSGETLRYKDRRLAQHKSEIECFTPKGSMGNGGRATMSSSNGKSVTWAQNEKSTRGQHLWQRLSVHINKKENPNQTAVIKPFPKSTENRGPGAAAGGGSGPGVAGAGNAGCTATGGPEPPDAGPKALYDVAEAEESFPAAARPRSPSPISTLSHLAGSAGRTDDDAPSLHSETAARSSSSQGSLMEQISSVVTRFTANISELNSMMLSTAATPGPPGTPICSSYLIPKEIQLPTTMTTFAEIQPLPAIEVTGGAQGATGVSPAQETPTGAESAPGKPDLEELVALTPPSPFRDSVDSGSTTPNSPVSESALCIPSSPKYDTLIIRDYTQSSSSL
row,EC50 [µM],Compound
1,0.17,O=C(c1ccc(F)cc1)N1CCC[C@H](c2nc(-c3cccs3)no2)C1
2,0.24,O=C(c1ccc(F)cc1F)N1CCC[C@H](c2nc(-c3ccccn3)no2)C1

# Target: Metabotropic glutamate receptor 5 (Homo sapiens) (UniProt P41594)
# Assay: Positive allosteric modulator activity at mGluR5 receptor expressed in HEK293A cells assessed as maximum glutamate-induced response preincubated for 140 secs before glutamate challenge by calcium fluorescence assay
# Type: functional, cell-based
# Conditions: HEK293-A
# Sequence of Metabotropic glutamate receptor 5 (Homo sapiens) (P41594 21-1212 limits assumed): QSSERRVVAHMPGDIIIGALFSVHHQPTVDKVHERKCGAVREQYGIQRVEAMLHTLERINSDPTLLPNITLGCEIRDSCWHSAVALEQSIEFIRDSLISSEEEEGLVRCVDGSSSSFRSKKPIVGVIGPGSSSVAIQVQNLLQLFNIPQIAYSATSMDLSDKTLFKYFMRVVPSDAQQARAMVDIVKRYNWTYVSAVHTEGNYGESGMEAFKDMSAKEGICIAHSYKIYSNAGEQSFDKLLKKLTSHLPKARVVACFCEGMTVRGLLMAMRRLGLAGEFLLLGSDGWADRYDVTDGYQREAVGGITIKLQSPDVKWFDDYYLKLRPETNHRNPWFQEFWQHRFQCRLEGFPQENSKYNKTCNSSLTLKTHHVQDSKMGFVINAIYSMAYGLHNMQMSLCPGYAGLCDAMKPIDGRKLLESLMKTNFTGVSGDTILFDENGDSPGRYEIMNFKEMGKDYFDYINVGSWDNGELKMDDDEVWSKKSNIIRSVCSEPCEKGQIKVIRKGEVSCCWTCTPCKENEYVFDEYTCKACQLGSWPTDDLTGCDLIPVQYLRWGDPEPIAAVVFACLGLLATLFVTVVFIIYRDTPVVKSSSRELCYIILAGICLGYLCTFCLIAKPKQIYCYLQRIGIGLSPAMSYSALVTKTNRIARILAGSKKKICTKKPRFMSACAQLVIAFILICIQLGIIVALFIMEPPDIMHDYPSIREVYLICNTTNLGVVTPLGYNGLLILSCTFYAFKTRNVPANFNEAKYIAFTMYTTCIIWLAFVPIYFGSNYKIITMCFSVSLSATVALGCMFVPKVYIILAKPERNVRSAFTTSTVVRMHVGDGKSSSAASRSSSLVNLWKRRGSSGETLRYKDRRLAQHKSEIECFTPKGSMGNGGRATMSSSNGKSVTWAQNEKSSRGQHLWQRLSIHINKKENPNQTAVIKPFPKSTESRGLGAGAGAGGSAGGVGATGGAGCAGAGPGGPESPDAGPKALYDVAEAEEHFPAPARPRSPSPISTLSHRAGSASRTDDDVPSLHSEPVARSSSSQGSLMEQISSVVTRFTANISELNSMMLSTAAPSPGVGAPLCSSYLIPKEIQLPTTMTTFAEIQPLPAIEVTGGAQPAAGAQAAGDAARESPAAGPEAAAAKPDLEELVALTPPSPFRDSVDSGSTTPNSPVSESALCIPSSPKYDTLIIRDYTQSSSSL
row,Compound,Activity [%]
1,O=C(c1cccc(F)c1)N1CCCC1c1nc(-c2cccc(F)c2)no1 (centres undefined),47
2,O=C(c1ccc(F)c(F)c1)N1CCCC[C@@H]1c1nc(-c2cccc(F)c2)no1,93
3,O=C(c1ccc(F)c(F)c1)N1CCCC1c1nc(-c2cccc(F)c2)no1 (centres undefined),62
4,O=C(c1ccc(F)cc1F)N1CCCC1c1nc(-c2cccc(F)c2)no1 (centres undefined),61
5,O=C(c1ccc(F)cc1)N1CCCC1c1nc(-c2cccc(F)c2)no1 (centres undefined),59

# The next lines start with the values.
row,Activity [%],Compound
1,60,O=C(c1cccs1)N1CCCC1c1nc(-c2cccc(F)c2)no1 (centres undefined)
2,58,O=C(C1CCCCC1)N1CCCC[C@@H]1c1nc(-c2cccc(F)c2)no1
3,95,O=C(c1ccc(F)cc1F)N1CCCC[C@@H]1c1nc(-c2cccc(F)c2)no1
4,75,O=C(C1CCCC1)N1CCCC1c1nc(-c2cccc(F)c2)no1 (centres undefined)
5,34,O=C(c1cccs1)N1CCCC[C@@H]1c1nc(-c2cccc(F)c2)no1
6,64,O=C(C1CCC1)N1CCCC1c1nc(-c2cccc(F)c2)no1 (racemic)
7,68.4,O=C(C1CCC1)N1CCC[C@@H]1c1nc(-c2cccc(F)c2)no1
8,72,O=C(C1CCC1)N1CCCC1c1nc(-c2ccc(F)cc2)no1 (racemic)
9,68,O=C(C1CC1)N1CCCC1c1nc(-c2cccc(F)c2)no1 (centres undefined)
10,59,O=C(c1cccc(F)c1)N1CCCC[C@@H]1c1nc(-c2cccc(F)c2)no1
11,38,O=C(C1CCC1)N1CCCC[C@@H]1c1nc(-c2cccc(F)c2)no1 (stereo in doubt; 22b) [listing 1 of 2 here]
12,91,O=C(c1ccc(F)cc1)N1CCCC[C@@H]1c1nc(-c2cccc(F)c2)no1
13,63,O=C(C1CCC1)N1CCCC1c1nc(-c2cccc(F)c2)no1 (stereo in doubt; 24b) [listing 1 of 2 here]
14,57.3,O=C(C1CCC1)N1CCC[C@H]1c1nc(-c2cccc(F)c2)no1

# Target: Metabotropic glutamate receptor 5 (Homo sapiens) (UniProt P41594)
# Assay: Partial antagonist activity at mGluR5 receptor expressed in HEK293A cells assessed as maximum glutamate-induced response preincubated for 140 secs before glutamate challenge by calcium fluorescence assay
# Type: functional, cell-based
# Design: scale not given: the % may be the effect or the level left
# Conditions: HEK293-A
row,Activity [%],Compound
1,24,Cc1cccc(-c2noc([C@H]3CCCCN3C(=O)C3CCCC3)n2)c1
2,16,Cc1cccc(-c2noc([C@H]3CCCCN3C(=O)C3CC3)n2)c1

# Target: Metabotropic glutamate receptor 5 (Rattus norvegicus) (UniProt P31424)
# Assay: Positive allosteric modulator activity at rat mGlu5 receptor expressed in HEK293A cells assessed as fold shift in glutamate induced response relative to control
# Type: cell-based
# Conditions: HEK293-A
# Sequence of Metabotropic glutamate receptor 5 (Rattus norvegicus) (P31424 21-1203 limits assumed): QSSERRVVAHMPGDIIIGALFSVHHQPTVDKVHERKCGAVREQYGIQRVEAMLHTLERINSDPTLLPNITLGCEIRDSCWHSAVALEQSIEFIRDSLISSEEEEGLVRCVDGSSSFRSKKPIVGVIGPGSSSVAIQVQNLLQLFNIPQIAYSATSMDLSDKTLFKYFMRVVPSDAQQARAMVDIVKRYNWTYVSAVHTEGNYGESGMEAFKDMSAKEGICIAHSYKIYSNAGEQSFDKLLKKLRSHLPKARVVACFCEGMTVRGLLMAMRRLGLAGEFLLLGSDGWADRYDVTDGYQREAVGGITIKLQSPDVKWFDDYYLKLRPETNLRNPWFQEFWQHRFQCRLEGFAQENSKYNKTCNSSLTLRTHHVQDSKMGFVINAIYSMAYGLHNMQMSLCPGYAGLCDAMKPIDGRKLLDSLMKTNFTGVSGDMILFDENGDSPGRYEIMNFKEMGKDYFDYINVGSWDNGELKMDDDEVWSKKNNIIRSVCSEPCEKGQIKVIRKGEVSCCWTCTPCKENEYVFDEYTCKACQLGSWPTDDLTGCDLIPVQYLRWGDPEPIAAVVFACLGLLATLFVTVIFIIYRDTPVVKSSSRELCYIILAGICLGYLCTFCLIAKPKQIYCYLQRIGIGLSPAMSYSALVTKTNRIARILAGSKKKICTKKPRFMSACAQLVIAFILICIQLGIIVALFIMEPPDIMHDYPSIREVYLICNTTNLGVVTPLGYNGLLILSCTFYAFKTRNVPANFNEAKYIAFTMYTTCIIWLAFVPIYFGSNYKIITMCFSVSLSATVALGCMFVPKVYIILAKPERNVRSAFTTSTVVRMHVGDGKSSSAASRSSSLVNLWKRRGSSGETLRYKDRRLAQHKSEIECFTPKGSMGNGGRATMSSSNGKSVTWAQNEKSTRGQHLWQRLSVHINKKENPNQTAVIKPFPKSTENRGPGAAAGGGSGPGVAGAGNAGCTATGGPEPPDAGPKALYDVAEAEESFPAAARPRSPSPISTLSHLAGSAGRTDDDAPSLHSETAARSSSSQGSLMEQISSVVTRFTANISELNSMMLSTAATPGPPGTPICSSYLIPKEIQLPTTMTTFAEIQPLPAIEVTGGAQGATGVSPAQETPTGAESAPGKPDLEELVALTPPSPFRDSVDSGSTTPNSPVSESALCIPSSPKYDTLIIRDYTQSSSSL
row,fold change (FC),Compound
1,20,O=C(c1ccc(F)cc1)N1CCC[C@H](c2nc(-c3cccs3)no2)C1
2,4.2,Cc1ccc(C#Cc2cncnc2)cc1
3,14,O=C(c1ccc(F)cc1F)N1CCC[C@H](c2nc(-c3ccccn3)no2)C1

# Target: Metabotropic glutamate receptor 5 (Homo sapiens) (UniProt P41594)
# Assay: Negative allosteric modulator activity at mGluR5 receptor expressed in HEK293A cells assessed as maximum glutamate-induced response preincubated for 140 secs before glutamate challenge by calcium fluorescence assay
# Type: functional, cell-based
# Conditions: HEK293-A
row,Compound,Activity [%]
1,O=C(C1CCC1)N1CCC[C@H](c2nc(-c3cccc(F)c3)no2)C1,31
2,Cc1cccc(-c2noc([C@H]3CCCCN3C(=O)c3ccc(F)c(F)c3)n2)c1,46
3,O=C(C1CCC1)N1CCC[C@@H](c2nc(-c3cccc(F)c3)no2)C1,60
4,O=C(C1CCC1)N1CCC[C@@H](c2nc(-c3ccccn3)no2)C1,19
5,O=C(C1CCC1)N1CCC[C@@H](c2nc(-c3cccc(Cl)c3)no2)C1,18
6,O=C(C1CCC1)N1CCC[C@H](c2nc(-c3ccccn3)no2)C1,33
7,O=C(C1CCC1)N1CCC[C@H](c2nc(-c3cccs3)no2)C1,67
8,Cc1cccc(-c2noc([C@H]3CCCCN3C(=O)c3cccc(F)c3)n2)c1,16
9,Cc1cccc(-c2noc([C@H]3CCCCN3C(=O)c3ccc(F)cc3)n2)c1,47
10,O=C(C1CCC1)N1CCC[C@H](c2nc(-c3cccc(Cl)c3)no2)C1,2.4
11,Cc1cccc(-c2noc([C@H]3CCCCN3C(=O)c3cccs3)n2)c1,0.9
12,Cc1cccc(-c2noc(C3CCCN3C(=O)C3CCC3)n2)c1 (racemic),34

# The next lines start with the values.
row,Activity [%],Compound
1,2.5,Cc1cccc(-c2noc([C@H]3CCCN(C(=O)C4CCC4)C3)n2)c1
2,54,COc1cccc(-c2noc([C@@H]3CCCN(C(=O)C4CCC4)C3)n2)c1
3,9.2,Cc1cccc(-c2noc([C@H]3CCCCN3C(=O)C3CCCCC3)n2)c1
4,2.1,COc1cccc(-c2noc([C@H]3CCCN(C(=O)C4CCC4)C3)n2)c1
5,14,Cc1cccc(-c2noc([C@@H]3CCCN(C(=O)C4CCC4)C3)n2)c1
6,25,O=C(C1CCC1)N1CCCC1c1nc(-c2cccc(Cl)c2)no1 (racemic)

# Target: T1, Metabotropic glutamate receptor 5
# Assay: Ago-Positive allosteric modulator activity at mGluR5 receptor expressed in HEK293A cells assessed as effect on glutamate-induced calcium flux preincubated for 140 secs before glutamate challenge by calcium fluorescence assay
# Type: functional, cell-based, HEK293-A
# Conditions: not given
# Target sequence in this assay (P31424 whole entry, looked up): as the sequence (P31424 whole entry) above
row,EC50 [µM],Compound
1,0.08,O=C(C1CC1)N1CCCC[C@@H]1c1nc(-c2cccc(F)c2)no1
2,0.31,O=C(C1CCCC1)N1CCCC[C@@H]1c1nc(-c2cccc(F)c2)no1

# Target: T1, Metabotropic glutamate receptor 5
# Assay: Negative allosteric modulator activity at mGluR5 receptor expressed in HEK293A cells assessed as inhibition of glutamate-induced calcium flux preincubated for 140 secs before glutamate challenge by calcium fluorescence assay
# Type: functional, cell-based, HEK293-A
# Conditions: not given
# Target sequence in this assay (P31424 whole entry, looked up): as the sequence (P31424 whole entry) above
row,Compound,IC50 [µM]
1,O=C(C1CCC1)N1CCC[C@H](c2nc(-c3cccc(F)c3)no2)C1,2.4
2,Cc1cccc(-c2noc([C@H]3CCCN(C(=O)C4CCC4)C3)n2)c1,0.7
3,O=C(C1CCC1)N1CCCC[C@H]1c1nc(-c2ccccn2)no1,10
4,Cc1cccc(-c2noc([C@@H]3CCCCN3C(=O)C3CCC3)n2)c1,0.5
5,COc1cccc(-c2noc([C@@H]3CCCN(C(=O)C4CCC4)C3)n2)c1,> 10
6,Cc1cccc(-c2noc([C@H]3CCCCN3C(=O)C3CCC3)n2)c1,0.3
7,Cc1cccc(-c2noc([C@H]3CCCCN3C(=O)c3ccc(F)c(F)c3)n2)c1,10
8,O=C(C1CCC1)N1CCC[C@@H](c2nc(-c3cccc(F)c3)no2)C1,> 10
9,Cc1cccc(-c2noc([C@H]3CCCCN3C(=O)C3CCCCC3)n2)c1,2.5
10,COc1cccc(-c2noc([C@H]3CCCN(C(=O)C4CCC4)C3)n2)c1,1.8
11,Cc1cccc(-c2noc([C@@H]3CCCN(C(=O)C4CCC4)C3)n2)c1,4.7
12,O=C(C1CCC1)N1CCC[C@@H](c2nc(-c3ccccn3)no2)C1,9.9
13,O=C(C1CCC1)N1CCC[C@@H](c2nc(-c3cccc(Cl)c3)no2)C1,3.1
14,COc1cccc(-c2noc([C@H]3CCCCN3C(=O)C3CCC3)n2)c1,0.3
15,O=C(C1CCC1)N1CCC[C@H](c2nc(-c3ccccn3)no2)C1,> 10
16,O=C(C1CCC1)N1CCC[C@H](c2nc(-c3cccs3)no2)C1,9.3
17,O=C(C1CCC1)N1CCCC[C@H]1c1nc(-c2cccs2)no1,2.6
18,Cc1cccc(-c2noc([C@H]3CCCCN3C(=O)c3cccc(F)c3)n2)c1,4.7
19,Cc1cccc(-c2noc([C@H]3CCCCN3C(=O)c3ccc(F)cc3)n2)c1,10
20,O=C(C1CCC1)N1CCC[C@H](c2nc(-c3cccc(Cl)c3)no2)C1,0.2
21,O=C(C1CCC1)N1CCCC[C@@H]1c1nc(-c2cccs2)no1,3.5
22,Cc1cccc(-c2noc([C@H]3CCCCN3C(=O)c3cccs3)n2)c1,0.73
23,Cc1cccc(-c2noc(C3CCCN3C(=O)C3CCC3)n2)c1 (racemic),2.4
24,O=C(C1CCC1)N1CCCC1c1nc(-c2cccc(Cl)c2)no1 (racemic),10
25,COc1cccc(-c2noc([C@@H]3CCCCN3C(=O)C3CCC3)n2)c1,0.08

# Target: T1, Metabotropic glutamate receptor 5
# Assay: Positive allosteric modulator activity at mGluR5 receptor expressed in HEK293A cells assessed as effect on glutamate-induced calcium flux preincubated for 140 secs before glutamate challenge by calcium fluorescence assay
# Type: functional, cell-based, HEK293-A
# Conditions: not given
# Target sequence in this assay (P31424 whole entry, looked up): as the sequence (P31424 whole entry) above
row,Compound,EC50 [µM]
1,O=C(c1cccc(F)c1)N1CCCC1c1nc(-c2cccc(F)c2)no1 (centres undefined),2.6
2,O=C(c1ccc(F)c(F)c1)N1CCCC[C@@H]1c1nc(-c2cccc(F)c2)no1,1.4
3,O=C(c1ccc(F)c(F)c1)N1CCCC1c1nc(-c2cccc(F)c2)no1 (centres undefined),3.7
4,O=C(c1ccc(F)cc1F)N1CCCC1c1nc(-c2cccc(F)c2)no1 (centres undefined),10
5,O=C(c1ccc(F)cc1)N1CCCC1c1nc(-c2cccc(F)c2)no1 (centres undefined),3.6

# The remaining lines, values ahead:
row,EC50 [µM],Compound
1,0.43,O=C(c1cccs1)N1CCCC1c1nc(-c2cccc(F)c2)no1 (centres undefined)
2,3.5,O=C(C1CCCCC1)N1CCCC[C@@H]1c1nc(-c2cccc(F)c2)no1
3,0.7,O=C(C1CCC1)N1CCCC[C@H]1c1nc(-c2cccc(F)c2)no1
4,2.9,O=C(c1ccc(F)cc1F)N1CCCC[C@@H]1c1nc(-c2cccc(F)c2)no1
5,1,O=C(C1CCCC1)N1CCCC1c1nc(-c2cccc(F)c2)no1 (centres undefined)
6,1.5,O=C(C1CCC1)N1CCCC1c1nc(-c2cccc(F)c2)no1 (stereo in doubt; 24b) [listing 2 of 2 here]
7,0.6,O=C(C1CCC1)N1CCCC[C@@H]1c1nc(-c2cccc(F)c2)no1 (stereo in doubt; (R)-20c)
8,0.65,O=C(C1CCC1)N1CCCC[C@@H]1c1nc(-c2cccc(F)c2)no1 (stereo in doubt; 22b) [listing 2 of 2 here]
9,0.53,O=C(C1CCC1)N1CCC[C@@H]1c1nc(-c2cccc(F)c2)no1
10,2.7,O=C(C1CCC1)N1CCCC1c1nc(-c2ccc(F)cc2)no1 (racemic)
11,2.9,O=C(C1CC1)N1CCCC1c1nc(-c2cccc(F)c2)no1 (centres undefined)
12,0.46,O=C(c1cccc(F)c1)N1CCCC[C@@H]1c1nc(-c2cccc(F)c2)no1
13,7,O=C(C1CCC1)N1CCC[C@H]1c1nc(-c2cccc(F)c2)no1

# Target: Metabotropic glutamate receptor 5 (Homo sapiens) (UniProt P41594)
# Assay: Ago-Positive allosteric modulator activity at mGluR5 receptor expressed in HEK293A cells assessed as maximum glutamate-induced response preincubated for 140 secs before glutamate challenge by calcium fluorescence assay
# Type: functional, cell-based
# Conditions: HEK293-A
row,Activity [%],Compound
1,70,O=C(C1CC1)N1CCCC[C@@H]1c1nc(-c2cccc(F)c2)no1
2,80,O=C(C1CCCC1)N1CCCC[C@@H]1c1nc(-c2cccc(F)c2)no1

# Target: T1, Metabotropic glutamate receptor 5
# Assay: Partial antagonist activity at mGluR5 receptor expressed in HEK293A cells assessed as inhibition of glutamate-induced calcium flux preincubated for 140 secs before glutamate challenge by calcium fluorescence assay
# Type: functional, cell-based, HEK293-A
# Conditions: not given
# Target sequence in this assay (P31424 whole entry, looked up): as the sequence (P31424 whole entry) above
row,IC50 [µM],Compound
1,0.6,Cc1cccc(-c2noc([C@H]3CCCCN3C(=O)C3CCCC3)n2)c1
2,0.28,Cc1cccc(-c2noc([C@H]3CCCCN3C(=O)C3CC3)n2)c1

# Target: T1, Metabotropic glutamate receptor 5
# Assay: Negative allosteric modulator activity at rat mGluR5 receptor expressed in HEK293A cells
# Conditions: not given
# Target sequence in this assay (P31424 whole entry): as above
row,Compound,IC50 [µM]
1,O=C(C1CCC1)N1CCC[C@H](c2nc(-c3ccccn3)no2)C1,8.7
